Test results published in US7553969B1, “Substituted phenethylamine derivatives” (Chugai Seiyaku Kabushiki Kaisha, priority 1999, dated 2009).
Where a SMILES comes first, the peptide text is derived from it. [ ]: non-standard residue; d: D form. NMeTyr(3-tBu) = CN[C@@H](Cc1ccc(O)c(C(C)(C)C)c1)C(=O)O; Tyr(3-tBu) = CC(C)(C)c1cc(C[C@H](N)C(=O)O)ccc1O; NMePhe(4-F) = CN[C@@H](Cc1ccc(F)cc1)C(=O)O; Phe(3-F) = N[C@@H](Cc1cccc(F)c1)C(=O)O; Phe(4-F) = N[C@@H](Cc1ccc(F)cc1)C(=O)O; NMe2Thi = CN[C@@H](Cc1cccs1)C(=O)O; NMeV = CN[C@H](C(=O)O)C(C)C

Key:
motilin receptor = target: T1, motilin receptor (Oryctolagus cuniculus, UniProt G1T803); test: Motilin receptor binding test (125I motilin, rabbit duodenum protein sample); conditions: 125I motilin 25 pM, concentration reducing specific binding by 50%
T1 construct: homogenized in 50 mM Tris buffer to prepare a protein sample; from tissue; host or cells: rabbit duodenum homogenate (mucous membrane separated)
Method: Motilin receptor binding test
A motilin receptor binding test was conducted in the following manner [Vantrappen et al., Regul. Peptides, 15, 143 (1986)]. The duodenum was extracted from a slaughtered rabbit, had the mucous membrane separated and homogenized in 50 mM Tris buffer to prepare a protein sample. The protein sample was incubated together with ^125I motilin 25 pM and thereafter the radioactivity bound to the protein was measured. Specific binding was defined as the difference between the radioactivity in the case of adding a great excess amount of motilin (10^−7 M) and that in the case of no adding. The activity of the compound was expressed by IC50 (in nM), as the concentration sufficient to reduce the specific binding by 50%.

[1] = test system: specimen of longitudinal muscle in the duodenum extracted from a rabbit (motilin-induced contraction); test: Action on the motilin-induced contraction of a specimen of longitudinal muscle in the duodenum extracted from a rabbit; conditions: Oryctolagus cuniculus, organ bath, Krebs solution 28° C., read-out: Contraction suppressing test, pA2 (converted)
Method: Action on the Contraction of a Specimen of Longitudinal Muscle in the Duodenum Extracted from a Rabbit
The action on the motilin-induced contraction of a specimen of longitudinal muscle in the duodenum extracted from a rabbit was investigated by the following method. A duodenum specimen (5×15 mm) extracted from a slaughtered rabbit was suspended in an organ bath (10 ml) such that the longitudinal muscle would run vertically; the bath was filled with a Krebs solution kept at 28° C. A mixed gas (95% O2 and 5% CO2) was continuously bubbled into the Krebs solution and the contraction of the duodenum specimen was recorded isotonically (with a 1-g load) via an isotonic transducer (ME-3407, ME Commercial, Tokyo, Japan). The degree of contraction was expressed in relative values, with the contraction by acetylcholine at a dose of 10^−4 M being taken as 100%. The activity of the compound was calculated as pA2 value indicating its effect on the dose-dependent muscle contraction by the motilin put into the organ bath.

T1 sequence (G1T803 1-400): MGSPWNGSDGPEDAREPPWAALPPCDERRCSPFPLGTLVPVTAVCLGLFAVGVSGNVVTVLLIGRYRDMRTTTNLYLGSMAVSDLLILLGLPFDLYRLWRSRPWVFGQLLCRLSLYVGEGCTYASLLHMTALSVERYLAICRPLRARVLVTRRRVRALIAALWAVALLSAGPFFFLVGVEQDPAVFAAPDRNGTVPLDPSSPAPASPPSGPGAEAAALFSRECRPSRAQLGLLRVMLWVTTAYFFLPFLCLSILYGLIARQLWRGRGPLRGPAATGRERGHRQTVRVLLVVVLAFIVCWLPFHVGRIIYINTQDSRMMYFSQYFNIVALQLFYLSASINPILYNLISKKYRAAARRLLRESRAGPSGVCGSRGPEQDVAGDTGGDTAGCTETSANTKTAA

| Compound | IC50 (motilin receptor) [nM] | Kb [1] [nM] |
| --- | --- | --- |
| CC(C)[C@@H](C(=O)N[C@@H](Cc1ccc(O)c(C(C)(C)C)c1)C(N)=O)N(C)C(=O)[C@@H](N)Cc1ccc(F)cc1 [Example 28, Phe(4-F)-N-Me-Val-Tyr(3-tBu)-NH2] (H-[Phe(4-F)]-[NMeV]-[Tyr(3-tBu)]-NH2) | 0.52 | 1 |
| CCN(C(=O)[C@H](C(C)C)N(C)C(=O)[C@@H](N)Cc1ccc(F)cc1)[C@@H](Cc1ccc(O)c(C(C)(C)C)c1)C(=O)NCO [Example 127, Phe(4-F)-N-Me-Val-N-Et-Tyr(3-tBu)-NHCH2OH] | 1.7 | 2 |
| CN(C(=O)[C@@H](N)Cc1ccc(F)cc1)[C@@H](Cc1cccs1)C(=O)N(C)[C@@H](Cc1ccc(O)c(C(C)(C)C)c1)C(N)=O [Example 163, Phe(4-F)-N-Me-Ala(β-2-thienyl)-N-Me-Tyr(3-tBu)-NH2] (H-[Phe(4-F)]-[NMe2Thi]-[NMeTyr(3-tBu)]-NH2) | 2.4 | 15.8 |
| CCN(C(=O)[C@H](C(C)C)N(C)C(=O)[C@H](Cc1ccc(F)cc1)NC)[C@@H](Cc1ccc(O)c(C(C)(C)C)c1)C(=O)NC [Example 43, N-Me-Phe(4-F)-N-Me-Val-N-Et-Tyr(3-tBu)-NHMe] | 1.9 | 3.16 |
| CCN[C@@H](Cc1ccc(F)cc1)C(=O)N(C)[C@H](C(=O)N[C@@H](Cc1ccc(O)c(C(C)(C)C)c1)C(=O)NC)C(C)C [Example 33, N-Et-Phe(4-F)-N-Me-Val-Tyr(3-tBu)-NHMe] | 1.7 | 3.98 |
| CNC(=O)[C@H](Cc1ccc(O)c(C(C)(C)C)c1)NC(=O)[C@H](C(C)C)N(C)C(=O)[C@H](Cc1ccc(F)cc1)NC [Example 32, N-Me-Phe(4-F)-N-Me-Val-Tyr(3-tBu)-NHMe] (H-[NMePhe(4-F)]-[NMeV]-[Tyr(3-tBu)]-NHMe) | 0.76 | 0.794 |
| CCN(C(=O)[C@H](C(C)C)N(C)C(=O)[C@H](Cc1ccc(F)cc1)NC)[C@@H](Cc1ccc(O)c(C(C)(C)C)c1)C(N)=O [Example 40, N-Me-Phe(4-F)-N-Me-Val-N-Et-Tyr(3-tBu)-NH2] | 1.6 | 2.51 |
| CC(C)[C@@H](C(=O)N(C)[C@@H](Cc1ccc(O)c(C(C)(C)C)c1)C(=O)NCO)N(C)C(=O)[C@@H](N)Cc1ccc(F)cc1 [Example 132, Phe(4-F)-N-Me-Val-N-Me-Tyr(3-tBu)-NHCH2OH] | 0.86 | 1.26 |
| CC(C)[C@@H](C(=O)N(C)[C@@H](Cc1ccc(O)c(C(C)(C)C)c1)C(N)=O)N(C)C(=O)[C@@H](N)Cc1cccc(F)c1 [Example 4, Phe(3-F)-N-Me-Val-N-Me-Tyr(3-tBu)-NH2] (H-[Phe(3-F)]-[NMeV]-[NMeTyr(3-tBu)]-NH2) | 1.6 | 5.01 |
| CC(C)[C@@H](C(=O)N[C@@H](Cc1ccc(O)c(C(C)(C)C)c1)C(=O)Nc1ccccn1)N(C)C(=O)[C@@H](N)Cc1ccc(F)cc1 [Example 8, 2-((2-amino-3-(4-fluorophenyl)propionyl)-N-methylamino)-3-methylbutyric acid 2-(3-tert-butyl-4-hydroxyphenyl)-1-(2-pyridylcarbamoyl)ethylamide] | 0.35 | 0.316 |
| CCOC(=O)CN1CCN(C(=O)[C@H](Cc2ccc(O)c(C(C)(C)C)c2)N(C)C(=O)[C@H](C(C)C)N(C)C(=O)[C@@H](N)Cc2ccc(F)cc2)CC1 [Example 135, ethyl 2-[4-((2S)-2-{(2S)-2-[(2S)-2-amino-3-(4-fluorophenyl)-N-methylpropanolyamino]-3,N-dimethylbutanoylamino}-3-[3-(tert-butyl)-4-hydroxyphenyl]propanoyl)piperazinyl]acetate] | 0.7 | 3.16 |
| CN[C@@H](Cc1ccc(F)cc1)C(=O)N(C)[C@H](C(=O)N(C)[C@@H](Cc1ccc(O)c(C(C)(C)C)c1)C(=O)NCO)C(C)C [Example 125, N-Me-Phe(4-F)-N-Me-Val-N-Me-Tyr(3-tBu)-NHCH2OH] | 1 | 1 |
